Read-outs that look alike come from different tables or passages of the source.
Legend:
Assay in all cases: Kinase binding screen
Conditions in all cases: read-out: Percent Control at 100 nM Compound Concentration
[1] = molecular target: ABL1(M351T)-phosphorylated (Homo sapiens (Human), UniProt P00519, M351T)
[2] = molecular target: ABL1(Y253F)-pho sphorylated (Homo sapiens (Human), UniProt P00519, Y253F)
[3] = molecular target: ACVR1B (Homo sapiens (Human), UniProt P36896)
[4] = molecular target: ACVR2A (Homo sapiens (Human), UniProt P27037)
[5] = molecular target: ACVRL1 (Homo sapiens (Human), UniProt P37023)
[6] = molecular target: BRSK2 (Homo sapiens (Human), UniProt Q8IWQ3)
[7] = molecular target: CAMK2D (Homo sapiens (Human), UniProt Q13557)
[8] = molecular target: CLK3 (Homo sapiens (Human), UniProt P49761)
[9] = molecular target: EPHA6 (Homo sapiens (Human), UniProt Q9UF33)
[10] = molecular target: EPHB1 (Homo sapiens (Human), UniProt P54762)
[11] = molecular target: ERN1 (Homo sapiens (Human), UniProt O75460)
[12] = molecular target: FGFR4 (Homo sapiens (Human), UniProt P22455)
[13] = molecular target: HUNK (Homo sapiens (Human), UniProt P57058)
[14] = molecular target: JNK2 (Homo sapiens (Human), UniProt P45984)
[15] = molecular target: LIMK2 (Homo sapiens (Human), UniProt P53671)
[16] = molecular target: LTK (Homo sapiens (Human), UniProt P29376)
[17] = molecular target: LYN (Homo sapiens (Human), UniProt P07948)
[18] = molecular target: MAP4K3 (Homo sapiens (Human), UniProt Q8IVH8)
[19] = molecular target: MARK2 (Homo sapiens (Human), UniProt Q7KZI7)
[20] = molecular target: MKK7 (Homo sapiens (Human), UniProt O14733)
[21] = molecular target: MYLK2 (Homo sapiens (Human), UniProt Q9H1R3)
[22] = molecular target: MY03B (Homo sapiens (Human), UniProt Q8WXR4)
[23] = molecular target: NDR2 (Homo sapiens (Human), UniProt Q9Y2H1)
[24] = molecular target: NEK4 (Homo sapiens (Human), UniProt P51957)
[25] = molecular target: NEK6 (Homo sapiens (Human), UniProt Q9HC98)
[26] = molecular target: PLK4 (Homo sapiens (Human), UniProt O00444)
[27] = molecular target: RPS6KA4(Kin.Dom.2-C-terminal) (Homo sapiens (Human), UniProt O75676)
[28] = molecular target: RPS6KA5(Kin.Dom.2-C-terminal) (Homo sapiens (Human), UniProt O75582)
[29] = molecular target: WNK1 (Homo sapiens (Human), UniProt Q9H4A3)
Chain of WNK1 (Q9H4A3 whole entry): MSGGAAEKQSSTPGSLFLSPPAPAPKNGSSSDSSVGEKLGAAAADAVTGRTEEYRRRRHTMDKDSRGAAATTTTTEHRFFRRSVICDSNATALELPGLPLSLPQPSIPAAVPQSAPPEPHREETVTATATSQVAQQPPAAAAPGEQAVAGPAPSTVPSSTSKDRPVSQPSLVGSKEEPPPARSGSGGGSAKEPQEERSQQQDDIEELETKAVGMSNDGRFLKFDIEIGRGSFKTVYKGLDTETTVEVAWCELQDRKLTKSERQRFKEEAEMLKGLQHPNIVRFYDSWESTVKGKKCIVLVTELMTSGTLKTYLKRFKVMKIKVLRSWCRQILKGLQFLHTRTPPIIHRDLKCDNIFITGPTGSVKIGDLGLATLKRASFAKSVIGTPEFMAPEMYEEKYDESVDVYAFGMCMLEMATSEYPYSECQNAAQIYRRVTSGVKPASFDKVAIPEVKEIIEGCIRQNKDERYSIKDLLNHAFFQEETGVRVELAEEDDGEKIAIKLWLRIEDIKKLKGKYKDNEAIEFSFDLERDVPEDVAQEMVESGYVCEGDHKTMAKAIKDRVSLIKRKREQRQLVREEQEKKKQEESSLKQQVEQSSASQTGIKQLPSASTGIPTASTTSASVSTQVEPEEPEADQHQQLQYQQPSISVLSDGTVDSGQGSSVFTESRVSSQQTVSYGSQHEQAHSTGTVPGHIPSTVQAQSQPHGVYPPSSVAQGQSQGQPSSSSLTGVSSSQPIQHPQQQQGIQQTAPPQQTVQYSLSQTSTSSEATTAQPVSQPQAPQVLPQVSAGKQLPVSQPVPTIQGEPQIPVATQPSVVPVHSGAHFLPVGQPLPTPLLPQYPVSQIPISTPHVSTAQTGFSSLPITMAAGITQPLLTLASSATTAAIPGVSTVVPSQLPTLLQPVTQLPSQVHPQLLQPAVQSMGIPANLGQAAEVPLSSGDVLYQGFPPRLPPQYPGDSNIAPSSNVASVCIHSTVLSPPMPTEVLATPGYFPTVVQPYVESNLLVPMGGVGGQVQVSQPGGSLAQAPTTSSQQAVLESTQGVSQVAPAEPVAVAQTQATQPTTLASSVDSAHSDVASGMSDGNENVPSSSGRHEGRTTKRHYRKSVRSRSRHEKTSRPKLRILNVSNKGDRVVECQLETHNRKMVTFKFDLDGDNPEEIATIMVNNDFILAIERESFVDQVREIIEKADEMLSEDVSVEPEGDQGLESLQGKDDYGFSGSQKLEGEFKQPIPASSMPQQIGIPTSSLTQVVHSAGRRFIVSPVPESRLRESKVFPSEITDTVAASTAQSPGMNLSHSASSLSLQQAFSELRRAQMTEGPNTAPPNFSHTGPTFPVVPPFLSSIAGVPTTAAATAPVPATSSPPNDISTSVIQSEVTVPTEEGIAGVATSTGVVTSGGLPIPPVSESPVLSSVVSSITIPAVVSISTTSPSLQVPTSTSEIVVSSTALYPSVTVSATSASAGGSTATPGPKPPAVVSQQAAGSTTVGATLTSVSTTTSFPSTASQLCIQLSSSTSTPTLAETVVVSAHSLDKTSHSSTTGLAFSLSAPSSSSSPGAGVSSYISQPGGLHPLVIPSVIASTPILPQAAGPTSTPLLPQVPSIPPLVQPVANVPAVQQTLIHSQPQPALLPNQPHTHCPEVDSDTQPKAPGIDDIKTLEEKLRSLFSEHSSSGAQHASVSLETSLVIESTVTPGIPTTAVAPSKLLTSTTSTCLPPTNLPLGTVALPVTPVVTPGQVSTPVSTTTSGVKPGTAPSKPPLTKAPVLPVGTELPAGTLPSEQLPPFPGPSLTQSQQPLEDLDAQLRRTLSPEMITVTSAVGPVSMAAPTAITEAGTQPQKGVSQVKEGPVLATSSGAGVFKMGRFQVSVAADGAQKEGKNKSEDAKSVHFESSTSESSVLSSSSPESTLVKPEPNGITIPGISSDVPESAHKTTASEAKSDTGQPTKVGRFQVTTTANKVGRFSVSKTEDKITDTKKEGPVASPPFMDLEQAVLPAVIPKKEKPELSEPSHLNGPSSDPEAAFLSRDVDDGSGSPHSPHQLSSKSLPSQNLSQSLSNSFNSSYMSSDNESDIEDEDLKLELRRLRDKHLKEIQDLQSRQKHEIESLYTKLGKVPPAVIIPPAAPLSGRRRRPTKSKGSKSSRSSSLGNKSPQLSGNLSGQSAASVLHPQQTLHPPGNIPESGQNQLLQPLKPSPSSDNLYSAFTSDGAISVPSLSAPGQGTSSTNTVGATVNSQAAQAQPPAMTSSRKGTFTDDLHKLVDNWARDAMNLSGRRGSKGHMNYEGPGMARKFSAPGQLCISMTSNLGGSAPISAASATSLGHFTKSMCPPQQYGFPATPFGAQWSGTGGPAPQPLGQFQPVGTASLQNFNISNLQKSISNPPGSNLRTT

Chain of BRSK2 (Q8IWQ3 whole entry): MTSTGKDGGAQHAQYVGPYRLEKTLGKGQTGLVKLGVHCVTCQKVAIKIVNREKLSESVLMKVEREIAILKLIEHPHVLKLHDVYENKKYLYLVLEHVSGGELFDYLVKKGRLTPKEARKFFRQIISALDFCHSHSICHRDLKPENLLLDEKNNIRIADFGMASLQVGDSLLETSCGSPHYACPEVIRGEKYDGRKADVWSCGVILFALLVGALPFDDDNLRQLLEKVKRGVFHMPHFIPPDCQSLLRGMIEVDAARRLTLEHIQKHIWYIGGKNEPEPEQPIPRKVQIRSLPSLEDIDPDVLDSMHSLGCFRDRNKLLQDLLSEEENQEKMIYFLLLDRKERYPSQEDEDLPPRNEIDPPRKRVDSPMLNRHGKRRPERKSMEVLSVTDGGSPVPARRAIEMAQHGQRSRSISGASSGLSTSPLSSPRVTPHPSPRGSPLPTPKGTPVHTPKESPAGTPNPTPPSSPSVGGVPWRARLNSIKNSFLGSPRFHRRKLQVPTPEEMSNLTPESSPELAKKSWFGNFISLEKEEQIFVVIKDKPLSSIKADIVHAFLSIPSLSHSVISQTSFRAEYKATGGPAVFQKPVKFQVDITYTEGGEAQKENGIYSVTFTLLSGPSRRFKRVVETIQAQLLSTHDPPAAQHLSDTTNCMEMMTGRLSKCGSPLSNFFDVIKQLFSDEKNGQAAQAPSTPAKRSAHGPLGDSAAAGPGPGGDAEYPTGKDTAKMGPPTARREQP
Chain of HUNK (P57058 whole entry): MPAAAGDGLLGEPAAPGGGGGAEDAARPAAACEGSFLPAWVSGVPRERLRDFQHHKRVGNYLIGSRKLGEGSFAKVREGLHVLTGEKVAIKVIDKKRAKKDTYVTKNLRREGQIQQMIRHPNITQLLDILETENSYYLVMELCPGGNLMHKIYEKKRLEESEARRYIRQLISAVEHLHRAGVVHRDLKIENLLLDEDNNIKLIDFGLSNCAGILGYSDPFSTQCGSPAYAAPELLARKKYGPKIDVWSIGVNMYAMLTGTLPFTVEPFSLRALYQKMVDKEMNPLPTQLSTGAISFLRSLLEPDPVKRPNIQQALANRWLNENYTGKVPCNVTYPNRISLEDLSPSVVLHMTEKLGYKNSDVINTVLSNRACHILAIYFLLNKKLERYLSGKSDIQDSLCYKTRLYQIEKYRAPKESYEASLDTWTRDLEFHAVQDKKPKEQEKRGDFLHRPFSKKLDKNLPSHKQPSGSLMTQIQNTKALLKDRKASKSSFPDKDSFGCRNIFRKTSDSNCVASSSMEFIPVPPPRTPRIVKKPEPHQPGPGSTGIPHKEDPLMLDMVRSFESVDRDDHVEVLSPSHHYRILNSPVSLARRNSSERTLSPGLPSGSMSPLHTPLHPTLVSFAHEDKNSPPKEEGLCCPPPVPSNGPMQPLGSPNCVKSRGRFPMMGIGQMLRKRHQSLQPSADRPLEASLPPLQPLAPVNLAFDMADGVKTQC
Chain of ACVR2A (P27037 20-513): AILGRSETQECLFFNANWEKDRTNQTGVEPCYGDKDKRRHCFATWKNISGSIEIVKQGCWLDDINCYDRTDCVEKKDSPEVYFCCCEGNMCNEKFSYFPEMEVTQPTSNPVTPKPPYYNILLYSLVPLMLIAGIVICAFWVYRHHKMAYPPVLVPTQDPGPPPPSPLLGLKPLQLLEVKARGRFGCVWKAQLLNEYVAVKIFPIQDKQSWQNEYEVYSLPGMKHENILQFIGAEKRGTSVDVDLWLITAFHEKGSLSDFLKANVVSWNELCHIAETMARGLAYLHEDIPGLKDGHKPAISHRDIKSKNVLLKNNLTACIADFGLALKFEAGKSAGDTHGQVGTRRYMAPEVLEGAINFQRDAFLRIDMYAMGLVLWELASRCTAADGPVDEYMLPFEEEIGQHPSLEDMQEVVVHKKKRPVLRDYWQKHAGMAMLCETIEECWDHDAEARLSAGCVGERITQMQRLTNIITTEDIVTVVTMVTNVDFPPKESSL
Chain of MARK2 (Q7KZI7 whole entry): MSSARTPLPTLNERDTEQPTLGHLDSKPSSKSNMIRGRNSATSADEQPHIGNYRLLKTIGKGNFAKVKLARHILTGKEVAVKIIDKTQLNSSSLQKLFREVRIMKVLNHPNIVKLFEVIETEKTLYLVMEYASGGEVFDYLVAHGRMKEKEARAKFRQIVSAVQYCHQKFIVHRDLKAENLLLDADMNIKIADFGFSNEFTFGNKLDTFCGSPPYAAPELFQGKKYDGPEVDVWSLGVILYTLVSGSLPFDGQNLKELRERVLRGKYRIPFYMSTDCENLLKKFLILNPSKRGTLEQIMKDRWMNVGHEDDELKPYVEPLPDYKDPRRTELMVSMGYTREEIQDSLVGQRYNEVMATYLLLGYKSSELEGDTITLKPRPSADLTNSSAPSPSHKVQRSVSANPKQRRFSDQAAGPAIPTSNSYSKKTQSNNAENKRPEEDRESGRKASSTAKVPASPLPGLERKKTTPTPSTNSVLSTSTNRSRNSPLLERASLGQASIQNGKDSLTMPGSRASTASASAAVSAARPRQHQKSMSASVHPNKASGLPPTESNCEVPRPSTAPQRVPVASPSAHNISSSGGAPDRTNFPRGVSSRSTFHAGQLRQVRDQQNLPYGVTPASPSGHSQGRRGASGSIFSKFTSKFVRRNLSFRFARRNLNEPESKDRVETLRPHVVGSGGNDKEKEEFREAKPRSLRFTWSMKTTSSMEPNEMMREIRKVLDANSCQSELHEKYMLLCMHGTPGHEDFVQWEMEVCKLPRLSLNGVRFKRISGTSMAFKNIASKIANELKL

`CN(C[C@@H](O)Cc1ccccc1)C(=O)c1cncc(C#Cc2cnn(C(F)F)c2)c1` [Example 2, (S)-5-((1-(difluoromethyl)-1H-pyrazol-4-yl)ethynyl)-N-(2-hydroxy-3-phenylpropyl)-N-methylnicotinamide] was tested, and the remaining activity at 0.1 µM ([1]; ABL1(M351T)-phosphorylated) was 86%, the remaining activity at 0.1 µM ([2]; ABL1(Y253F)-pho sphorylated) was 100% and the remaining activity at 0.1 µM ([3]; ACVR1B) was 100%. It also gave a remaining activity at 0.1 µM ([4]; ACVR2A) of 94%, a remaining activity at 0.1 µM ([5]; ACVRL1) of 100% and a remaining activity at 0.1 µM ([6]; BRSK2) of 96%. For the same compound, the remaining activity at 0.1 µM ([7]; CAMK2D) was 100%, the remaining activity at 0.1 µM ([8]; CLK3) was 97% and the remaining activity at 0.1 µM ([9]; EPHA6) was 100%. For the same compound, the remaining activity at 0.1 µM ([10]; EPHB1) was 100%, the remaining activity at 0.1 µM ([11]; ERN1) was 100% and the remaining activity at 0.1 µM ([12]; FGFR4) was 100%. The remaining activity at 0.1 µM ([13]; HUNK) was 82%, the remaining activity at 0.1 µM ([14]; JNK2) was 91% and the remaining activity at 0.1 µM ([15]; LIMK2) was 95%. For the same compound, the remaining activity at 0.1 µM ([16]; LTK) was 100%, the remaining activity at 0.1 µM ([17]; LYN) was 71% and the remaining activity at 0.1 µM ([18]; MAP4K3) was 100%. The remaining activity at 0.1 µM ([19]; MARK2) was 96%, the remaining activity at 0.1 µM ([20]; MKK7) was 98% and the remaining activity at 0.1 µM ([21]; MYLK2) was 100%. For the same compound, the remaining activity at 0.1 µM ([22]; MY03B) was 95%, the remaining activity at 0.1 µM ([23]; NDR2) was 94% and the remaining activity at 0.1 µM ([24]; NEK4) was 100%. The remaining activity at 0.1 µM ([25]; NEK6) was 100%, the remaining activity at 0.1 µM ([26]; PLK4) was 100% and the remaining activity at 0.1 µM ([27]; RPS6KA4(Kin.Dom.2-C-terminal)) was 97%. It also gave a remaining activity at 0.1 µM ([28]; RPS6KA5(Kin.Dom.2-C-terminal)) of 95% and a remaining activity at 0.1 µM ([29]; WNK1) of 93%.
`CN(C[C@H](Cc1ccccc1)OP(=O)(O)O)C(=O)c1cncc(C#Cc2cnn(C(F)F)c2)c1` [Example 19, (S)-1-(5-((1-(difluoromethyl)-1H-pyrazol-4-yl)ethynyl)-N-methylnicotinamido)-3-phenylpropan-2-yl dihydrogen phosphate] was tested, and the remaining activity at 0.1 µM [1] was 97%, the remaining activity at 0.1 µM [2] was 100% and the remaining activity at 0.1 µM [3] was 100%. The remaining activity at 0.1 µM [4] was 100%, the remaining activity at 0.1 µM [5] was 100% and the remaining activity at 0.1 µM [6] was 95%. The remaining activity at 0.1 µM [7] was 100%, the remaining activity at 0.1 µM [8] was 93% and the remaining activity at 0.1 µM [9] was 100%. For the same compound, the remaining activity at 0.1 µM [10] was 100%, the remaining activity at 0.1 µM [11] was 93% and the remaining activity at 0.1 µM [12] was 100%. The remaining activity at 0.1 µM [13] was 96%, the remaining activity at 0.1 µM [14] was 92% and the remaining activity at 0.1 µM [15] was 93%. The remaining activity at 0.1 µM [16] was 100%, the remaining activity at 0.1 µM [17] was 80% and the remaining activity at 0.1 µM [18] was 100%. It also gave a remaining activity at 0.1 µM [19] of 100%, a remaining activity at 0.1 µM [20] of 96% and a remaining activity at 0.1 µM [21] of 96%. For the same compound, the remaining activity at 0.1 µM [22] was 79%, the remaining activity at 0.1 µM [23] was 84% and the remaining activity at 0.1 µM [24] was 100%. For the same compound, the remaining activity at 0.1 µM [25] was 100%, the remaining activity at 0.1 µM [26] was 100% and the remaining activity at 0.1 µM [27] was 100%. The remaining activity at 0.1 µM [28] was 90% and the remaining activity at 0.1 µM [29] was 94%.

From patent US11767310B2, “Nicotinamide RIPK1 inhibitors” (AbbVie Inc., priority 2021, dated 2023)
